Values after ≈ are worked out from the molar mass of the structure shown.
Columns and labels:
Test in all cases: Minimum Inhibitory Concentration (MIC), RPMI medium
Format in all cases: cell-based
A. flavus = conditions: Aspergillus flavus, >80% growth inhibition
Description: (§1) Between 1 and 5 mgs of the compound were accurately weighed out into a sterile Eppendorf tube. The compound was dissolved in DMSO to give a solution containing 5 mg/mL. Tubes were stored at −20° C. until required.
(§2) On the day of testing thawed solutions were vortex mixed to ensure homogeneity. 30 μL of solution was removed and added to 570 μL of sterile water in a separate sterile Eppendorf. The thoroughly mixed solution was used to prepare a series of doubling dilutions in water, in a deep well plate. Thirteen replicate plates were prepared using a Minitrak by aspirating 20 μL from each well into eleven clear polystyrene 96 well plates.
(§3) Spores of Aspergillus and Scedosporium were harvested from cultures grown on Sabarauds agar for 5 days, and resuspended in PBS/Tween 80 to approx 1×10^7 cfu/mL. Each organism suspension was diluted in RPMI medium, containing 2% glucose and 0.135 M MOPS buffer (pH 7.0) to 0.5-2×10^4 cfu/mL. 80 μL of an organism suspension was added to each well of the plate containing drug dilutions.
(§4) This produced MIC plates with a drug range 50-0.05 mg/L and organism inocula of 1-2×10^4 cfu/mL. All plates were incubated for 24-48 h at 35° C. Growth was assessed by monitoring the optical density at 485 nm for each well. The MIC of a compound is the lowest drug concentration that inhibits growth of an organism by >80% compared with a drug free control.

A. fumigatus 210 = conditions: Aspergillus fumigatus, >80% growth inhibition
Description: as §1, §2, §3, §4

A. fumigatus = conditions: Aspergillus fumigatus, >80% growth inhibition
Description: as §1, §2, §3, §4

A. niger = conditions: Aspergillus niger, >80% growth inhibition
Description: as §1, §2, §3, §4

A. terreus 49 = conditions: Aspergillus terreus, >80% growth inhibition
Description: as §1, §2, §3, §4

A. terreus = conditions: Aspergillus terreus, >80% growth inhibition
Description: as §1, §2, §3, §4

[1] = test system: Scedosporium apiospermum 13486
Description: as §1, §2, §3, §4

[2] = test system: Scedosporium apiospermum 15848
Description: as §1, §2, §3, §4

[3] = test system: Scedosporium apiospermum 451
Description: as §1, §2, §3, §4

[4] = test system: Scedosporium apiospermum 4883
Description: as §1, §2, §3, §4

[5] = test system: Scedosporium apiospermum 7935
Description: as §1, §2, §3, §4

[6] = test system: Scedosporium apiospermum 8353
Description: as §1, §2, §3, §4

[7] = test system: Scedosporium prolificans 18389; conditions: Lomentospora prolificans
Description: as §1, §2, §3, §4

[8] = test system: Scedosporium prolificans 206; conditions: Lomentospora prolificans
Description: as §1, §2, §3, §4

[9] = test system: Scedosporium prolificans 6322; conditions: Lomentospora prolificans
Description: as §1, §2, §3, §4

[10] = test system: Scedosporium species 15849
Description: as §1, §2, §3, §4

MIC (A. flavus) [µg/mL]	MIC (A. fumigatus 210) [µg/mL]	MIC (A. fumigatus) [µg/mL]	MIC (A. niger) [µg/mL]	MIC (A. terreus 49) [µg/mL]	MIC (A. terreus) [µg/mL]	MIC ([1]; Scedosporium apiospermum, 13486) [µg/mL]	MIC [2] [µg/mL]	MIC [3] [µg/mL]	MIC [4] [µg/mL]	MIC [5] [µg/mL]	MIC [6] [µg/mL]	MIC [7] [µg/mL]	MIC [8] [µg/mL]	MIC [9] [µg/mL]	MIC [10] [µg/mL]	SMILES	MIC Scedosporium apiospermum 13486 [1]
0.04 to 0.06 (≈ 0.0738 to 0.111 µM)	0.04 to 0.06 (≈ 0.0738 to 0.111 µM)	0.04 to 0.06 (≈ 0.0738 to 0.111 µM)	0.04 to 0.06 (≈ 0.0738 to 0.111 µM)	0.04 to 0.06 (≈ 0.0738 to 0.111 µM)	0.04 to 0.06 (≈ 0.0738 to 0.111 µM)											Cc1cc(C)nc(N2CCN(c3ccc(NC(=O)C(=O)c4c(-c5ccccc5)cc(C)n4C)c(Cl)c3)CC2)c1 [Ref. Example 8, N-{2-Chloro-4-[4-(4,6-dimethyl-pyridin-2-yl)-piperazin-1-yl]-phenyl}-2-(1,5-dimethyl-3-phenyl-1H-pyrrol-2-yl)-2-oxo-acetamide]	
0.04 to 0.06 (≈ 0.081 to 0.122 µM)	0.04 to 0.06 (≈ 0.081 to 0.122 µM)	0.04 to 0.06 (≈ 0.081 to 0.122 µM)	0.04 to 0.06 (≈ 0.081 to 0.122 µM)	0.04 to 0.06 (≈ 0.081 to 0.122 µM)	0.04 to 0.06 (≈ 0.081 to 0.122 µM)											Cc1ccnc(N2CCN(c3ccc(NC(=O)C(=O)c4c(-c5ccccc5)cc(C)n4C)cc3)CC2)c1 [Ref. Example 4, 2-(1,5-Dimethyl-3-phenyl-1H-pyrrol-2-yl)-N-{4-[4-(4-methyl-pyridin-2-yl)-piperazin-1-yl]-phenyl}-2-oxo-acetamide]	
0.04 to 0.06 (≈ 0.081 to 0.122 µM)	0.04 to 0.06 (≈ 0.081 to 0.122 µM)	0.04 to 0.06 (≈ 0.081 to 0.122 µM)	> 0.06	0.04 to 0.06 (≈ 0.081 to 0.122 µM)	0.04 to 0.06 (≈ 0.081 to 0.122 µM)											Cc1cccc(N2CCN(c3ccc(NC(=O)C(=O)c4c(-c5ccccc5)cc(C)n4C)cc3)CC2)n1 [Ref. Example 5, 2-(1,5-Dimethyl-3-phenyl-1H-pyrrol-2-yl)-N-{4-[4-(6-methyl-pyridin-2-yl)-piperazin-1-yl]-phenyl}-2-oxo-acetamide]	
0.04 to 0.06 (≈ 0.0796 to 0.119 µM)	0.04 to 0.06 (≈ 0.0796 to 0.119 µM)	0.04 to 0.06 (≈ 0.0796 to 0.119 µM)	0.04 to 0.06 (≈ 0.0796 to 0.119 µM)	0.04 to 0.06 (≈ 0.0796 to 0.119 µM)	0.04 to 0.06 (≈ 0.0796 to 0.119 µM)											[2H]c1c([2H])c(N2CCN(c3ncc(F)cn3)CC2)c([2H])c([2H])c1NC(=O)C(=O)c1c(-c2ccccc2)cc(C)n1C [Example 4, 2-(1,5-dimethyl-3-phenyl-1H-pyrrol-2-yl)-N-(4-(4-(5-fluoropyrimidin-2-yl)piperazin-1-yl)phenyl-2,3,5,6-d4)-2-oxoacetamide]	
0.04 to 0.06 (≈ 0.079 to 0.118 µM)	0.04 to 0.06 (≈ 0.079 to 0.118 µM)	0.04 to 0.06 (≈ 0.079 to 0.118 µM)	0.04 to 0.06 (≈ 0.079 to 0.118 µM)	0.04 to 0.06 (≈ 0.079 to 0.118 µM)	0.04 to 0.06 (≈ 0.079 to 0.118 µM)											[2H]C1([2H])N(c2ccc(NC(=O)C(=O)c3c(-c4ccccc4)cc(C)n3C)cc2)C([2H])([2H])C([2H])([2H])N(c2ncc(F)cn2)C1([2H])[2H] [Example 3, 2-(1,5-dimethyl-3-phenyl-1H-pyrrol-2-yl)-N-(4-(4-(5-fluoropyrimidin-2-yl)piperazin-1-yl-2,2,3,3,5,5,6,6-d8)phenyl)-2-oxoacetamide]	
> 0.06	0.04 to 0.06 (≈ 0.0804 to 0.121 µM)	0.04 to 0.06 (≈ 0.0804 to 0.121 µM)	0.04 to 0.06 (≈ 0.0804 to 0.121 µM)	0.04 to 0.06 (≈ 0.0804 to 0.121 µM)	0.04 to 0.06 (≈ 0.0804 to 0.121 µM)											Cc1cc(-c2ccccc2)c(C(=O)C(=O)Nc2ccc(N3CCN(c4ccccn4)CC3)c(F)c2)n1C [Ref. Example 1, 2-(1,5-Dimethyl-3-phenyl-1H-pyrrol-2-yl)-N-[3-fluoro-4-(4-pyridin-2-yl-piperazin-1-yl)-phenyl]-2-oxo-acetamide]	
0.04 to 0.06 (≈ 0.0834 to 0.125 µM)	0.04 to 0.06 (≈ 0.0834 to 0.125 µM)	0.04 to 0.06 (≈ 0.0834 to 0.125 µM)	> 0.06	0.04 to 0.06 (≈ 0.0834 to 0.125 µM)	0.04 to 0.06 (≈ 0.0834 to 0.125 µM)	> 0.06	> 0.06	> 0.06	> 0.06	> 0.06	> 0.06	> 0.06	> 0.06	> 0.06	> 0.06	Cc1cc(-c2ccccc2)c(C(=O)C(=O)Nc2ccc(N3CCN(c4ccccn4)CC3)cc2)n1C [Ref. Example 6, 2-(1,5-Dimethyl-3-phenyl-1H-pyrrol-2-yl)-2-oxo-N-[4-(4-pyridin-2-yl-piperazin-1-yl)-phenyl]-acetamide]	F (a grade of F represents an MIC of greater than 0.06 mg/L)
0.04 to 0.06 (≈ 0.0804 to 0.121 µM)	0.04 to 0.06 (≈ 0.0804 to 0.121 µM)	0.04 to 0.06 (≈ 0.0804 to 0.121 µM)	0.04 to 0.06 (≈ 0.0804 to 0.121 µM)	0.04 to 0.06 (≈ 0.0804 to 0.121 µM)	0.04 to 0.06 (≈ 0.0804 to 0.121 µM)											Cc1cc(-c2ccccc2)c(C(=O)C(=O)Nc2ccc(N3CCN(c4ccccn4)CC3)cc2F)n1C [Ref. Example 2, 2-(1,5-Dimethyl-3-phenyl-1H-pyrrol-2-yl)-N-[2-fluoro-4-(4-pyridin-2-yl-piperazin-1-yl)-phenyl]-2-oxo-acetamide]	
0.04 to 0.06 (≈ 0.0767 to 0.115 µM)	0.04 to 0.06 (≈ 0.0767 to 0.115 µM)	0.04 to 0.06 (≈ 0.0767 to 0.115 µM)	0.04 to 0.06 (≈ 0.0767 to 0.115 µM)	0.04 to 0.06 (≈ 0.0767 to 0.115 µM)	0.04 to 0.06 (≈ 0.0767 to 0.115 µM)											Cc1cc(C)nc(N2CCN(c3ccc(NC(=O)C(=O)c4c(-c5ccccc5)cc(C)n4C)cc3C)CC2)c1 [Ref. Example 3, 2-(1,5-Dimethyl-3-phenyl-1H-pyrrol-2-yl)-N-{4-[4-(4,6-dimethyl-pyridin-2-yl)-piperazin-1-yl]-3-methyl-phenyl}-2-oxo-acetamide]	
0.04 to 0.06 (≈ 0.0764 to 0.115 µM)	> 0.06	> 0.06	> 0.06	> 0.06	> 0.06											Cc1cc(C)nc(N2CCN(c3ccc(NC(=O)C(=O)c4c(-c5ccccc5)cc(C)n4C)cc3O)CC2)c1 [Ref. Example 7, 2-(1,5-Dimethyl-3-phenyl-1H-pyrrol-2-yl)-N-{4-[4-(4,6-dimethyl-pyridin-2-yl)-piperazin-1-yl]-3-hydroxy-phenyl}-2-oxo-acetamide]	
0.04 to 0.06 (≈ 0.0738 to 0.111 µM)	0.04 to 0.06 (≈ 0.0738 to 0.111 µM)	0.04 to 0.06 (≈ 0.0738 to 0.111 µM)	0.04 to 0.06 (≈ 0.0738 to 0.111 µM)	0.04 to 0.06 (≈ 0.0738 to 0.111 µM)	0.04 to 0.06 (≈ 0.0738 to 0.111 µM)											Cc1cc(C)nc(N2CCN(c3ccc(NC(=O)C(=O)c4c(-c5ccccc5)cc(C)n4C)cc3Cl)CC2)c1 [Ref. Example 9, N-{3-Chloro-4-[4-(4,6-dimethyl-pyridin-2-yl)-piperazin-1-yl]-phenyl}-2-(1,5-dimethyl-3-phenyl-1H-pyrrol-2-yl)-2-oxo-acetamide]	
